# Laboratory results reported in patent publication US20140271727A1, “METHOD OF USING AN ANTIDEPRESSANT FOR INCREASING IMMUNITY OF A SUBJECT AND TREATING CANCER” (NATIONAL YANG-MING UNIVERSITY, priority 2013, published 2014).
# Columns and labels:
# CT26/luc tumor [1] = test: CT26/luc tumor growth in BALB/c mice (caliper tumor volume, BLI); format: in vivo, mouse; design: mean tumor growth time / mean tumor growth delay time: unit not given here; conditions: for mean tumor growth delay time: growth time of treated group minus that of never; for mean tumor growth time: time at which tumor volume reaches 400 mm; for mean tumor growth inhibition rate: growth rate of treated group/growth rate of never
# Protocol: The details in preparing the materials and processing relative analyses will be illustrated as follows. First, CT-26 murine colon carcinoma cells (obtained from Taiwan Liposome Company, Taipei, Taiwan) were transfected with the luciferase gene (hereafter called “CT26/luc”). The CT26/luc tumor cells were cultured in RPMI 1640 medium (Invitrogen) supplemented with 10% fetal bovine serum (Hyclone), 100 units/ml of penicillin, and […] streptomycin (Gibco-BRL) at 37° C. in a 5% CO2 atmosphere.
# (§1) Second, all animal study protocols were approved by the Institutional Animal Care and Use Committee (IACAU) of National Yang Ming University. Mirtazapine (0.25 mg) was dissolved in 0.05 ml of 0.9% NaCl plus 0.5% absolute ethanol for each mouse (i.e. 10 mg/kg.) Male BALB/c mice (initial weights 25±2 g, and purchased from the National Laboratory Animal Center, Taipei, Taiwan) were housed in the cages, five mice per cage, under a 12:12 h reverse light/dark cycle with lights off at 6 pm Animals were handled and weighed daily for a week to reduce any non-specific stress responses. And then, please refer to FIG. 1A and FIG. 1B, FIG. 1A and FIG. 1B are diagrams showing the experimental designs according to an embodiment of the present invention. […] “Wild-type” means the mice are monitored without tumor inoculation and mirtazapine treatment, drug means the mice are monitored with continuous mirtazapine treatment but without tumor inoculation, never means the mice are monitored with tumor inoculation and daily 0.05 ml of 0.9% NaCl plus 0.5% absolute ethanol treatment but without mirtazapine treatment, always means the mice are monitored with mirtazapine treatment initiated 2 weeks before the tumor inoculation, and concurrent means the mice are monitored with tumor inoculation and mirtazapine treatment on the same day, and after means the mice are monitored with mirtazapine treatment initiated 2 weeks post the tumor inoculation. That is, the mice were assayed on day 22 for behaviors, and then sacrificed for the measurement of lymphocyte subsets and performed with ex vivo autoradiography.
# (§2) Accordingly, the CT26/luc cells (2×10^6 cells/200 μL) suspended in the serum-free RPMI medium were transplanted subcutaneously into the dorsal region of the right thighs of the BALB/c mice. 10 mg/kg/d mirtazapine dissolved in 0.9% sodium chloride and 0.5% ethanol was administered to mice by gavage daily till mice expired or terminated on day 67 post tumor inoculation. Survival rate and interval were assayed for never, always, concurrent, and after (n=10 per group).
# As to the tumor growth, it was monitored using a digital caliper twice a week. The tumor volume was calculated according the following formula: […]
# 0.5236×length×width×thickness
# Bioluminescence imaging (hereafter called “BLI”) used for tumor size tracking was performed with an IVIS50 animal imaging system (Xenogen Corp., USA).
# CT26/luc tumor [2] = test: Survival of CT26/luc tumor-bearing BALB/c mice; format: in vivo, mouse; conditions: 10 mg/kg/d by gavage, never 43.1±2.6 days
# Protocol: as §1
# as §2, with “group). […]” for “group).”
# IFN-γ = IFN-γ level in tumor by ELISA; format: in vivo, mouse; conditions: tumor lysate 6 weeks after tumor inoculation, 2 mg tumor protein
# Protocol: And then, the level of IFN-γ in the tumor was determined using an ELISA kit (R&D Systems, Taiwan). Briefly, 6 weeks after tumor inoculation, the mice were sacrificed and the tumors were quickly removed and minced, then added with lysis buffer containing 1% protease inhibitor cocktail (T-PER tissue protein extraction reagent, Thermo Scientific, USA). After sonication, the cell mixture was centrifuged with 15000 rpm (Kubota centrifuge 1700, Japan) at 4° C. for 10 min The supernatant was collected for the protein quantification using bovine serum albumin as the standard. Two mg of the tumor proteins was used for the quantification of IFN-γ.
# CD4+ and CD8+ T cells = test: Immunohistostaining of infiltrating CD4+ and CD8+ T cells in tumor tissues; format: in vivo, mouse; conditions: concurrent and always vs never; day 42 post tumor inoculation; p<0.01 and p<0.001
# Protocol: Immunohistochemistry (IHC) of CD4 and CD8 was also performed on day 42 post the tumor inoculation. Tumors were then removed, paraffin embedded, and 5-mm sectioning was performed. The sections were immunohistostained with antibodies against CD4 (BioLegend, USA) and CD8 (BioLegend, USA), respectively. The procedures of immunohistostaining were followed the protocols provided with the IHC kit (Millipore, USA). All images were digitally captured on a Scanscope CS system (Aperio, USA).
# TNF-α = TNF-α in tumor by ex vivo Western blotting; design: species or system mouse; conditions: Always, Concurrent and After; day 42 post tumor inoculation; decreased to % of Never
# Protocol: As to the quantification of TNF-α, the whole blood withdrawn from the pouch of each mouse once a week for up to 6 weeks was centrifuged at 600×g for 20 min, and serum was collected. The serum TNF-α level was evaluated with an ELISA kit (eBioscience, USA). The level of TNF-α in the tumor of mice on day 42 post tumor inoculation was determined using ex vivo Western Blotting assay. Briefly, 6 weeks after tumor inoculation, the mice were sacrificed and the tumors were quickly removed and minced, then added with lysis buffer containing 1% protease inhibitor cocktail (T-PER tissue protein extraction reagent, Thermo Scientific, USA). Equal amounts of proteins (40 μg) were subjected to SDS-PAGE and transferred to PVDF membranes (Millipore, Bedford, Mass.). Non-specific binding was blocked by incubation with 5% non-fat milk. Membrane was incubated with antibodies against TNF-α (Abbiotec, USA) and β-actin (Millipore, USA) overnight at 4° C. The goat-anti rabbit IgG (Millipore) and goat-anti mouse IgG conjugated with horseradish peroxidase (Millipore) were used as the secondary antibodies. The band signal from the antigen-antibody binding was illustrated with enhanced chemoluminescence system (ECL, Millipore). Image J software (National Institutes of Health, USA) was used for the quantitative analysis.
# CT26/luc tumor [3] = test: CT26/luc tumor growth in SCID mice; format: in vivo, mouse; conditions: always-SCID vs never-SCID
# Excerpt: Also, Applicant divides other six-weeks-old immunodeficient male SCID mice (purchased from the National Laboratory Animal Center, Taiwan) into two groups, such as the group named “never-SCID” (hereafter called “never-SCID”) and the group named “always-SCID” (hereafter called “always-SCID”), as control groups for verifying the involvement of the immune system in the inhibition of the tumor growth by mirtazapine. Never-SCID means that the mice are monitored with tumor inoculation but without mirtazapine treatment, and always-SCID means the mice are monitored with mirtazapine treatment initiated 2 weeks before tumor inoculation. As to the tumor growth, it was monitored using a digital caliper twice a week. The tumor volume was calculated according the following formula: 0.5236×length×width×thickness Bioluminescence imaging (hereafter called “BLI”) used for tumor size tracking was performed with an IVIS50 animal imaging system (Xenogen Corp., USA).
# [4] = mouse, in vivo
# Protocol: Second, all animal study protocols were approved by the Institutional Animal Care and Use Committee (IACAU) of National Yang Ming University. Mirtazapine (0.25 mg) was dissolved in 0.05 ml of 0.9% NaCl plus 0.5% absolute ethanol for each mouse (i.e. 10 mg/kg.) Male BALB/c mice (initial weights 25±2 g, and purchased from the National Laboratory Animal Center, Taipei, Taiwan) were housed in the cages, five mice per cage, under a 12:12 h reverse light/dark cycle with lights off at 6 pm Animals were handled and weighed daily for a week to reduce any non-specific stress responses. […] “Wild-type” means the mice are monitored without tumor inoculation and mirtazapine treatment, drug means the mice are monitored with continuous mirtazapine treatment but without tumor inoculation, never means the mice are monitored with tumor inoculation and daily 0.05 ml of 0.9% NaCl plus 0.5% absolute ethanol treatment but without mirtazapine treatment, always means the mice are monitored with mirtazapine treatment initiated 2 weeks before the tumor inoculation, and concurrent means the mice are monitored with tumor inoculation and mirtazapine treatment on the same day, and after means the mice are monitored with mirtazapine treatment initiated 2 weeks post the tumor inoculation. […]
structure (smiles),measurement,setting,value
CN1CCN2c3ncccc3Cc3ccccc3C2C1 (centres unmarked) [mirtazapine],tumor growth inhibition,"CT26/luc tumor [1]; always, concurrent and after vs never, day 22-47 after tumor inoculation, p<0.01",significant tumor growth inhibition
same,mean tumor growth delay time,CT26/luc tumor [1]; group Always (2 weeks before inoculation),18.8
same,mean tumor growth time,CT26/luc tumor [1]; group Always: mirtazapine 10 mg/kg/d by gavage initiated 2 weeks before tumor inoculation,41.3
same,mean tumor growth inhibition rate,CT26/luc tumor [1]; group Always,1.8
same,mean tumor growth delay time,CT26/luc tumor [1]; group Concurrent (same day as inoculation),8.2
same,mean tumor growth time,CT26/luc tumor [1]; group Concurrent: mirtazapine 10 mg/kg/d from the day of tumor inoculation,30.9
same,mean tumor growth inhibition rate,CT26/luc tumor [1]; group Concurrent,1.4
same,mean tumor growth delay time,CT26/luc tumor [1]; group after (2 weeks post inoculation),2.8
same,mean tumor growth time,CT26/luc tumor [1]; group after: mirtazapine 10 mg/kg/d initiated 2 weeks post tumor inoculation,25.4
same,mean tumor growth inhibition rate,CT26/luc tumor [1]; group after,1.1
same,survival time,CT26/luc tumor [2]; group after,57.01 ± 3.2 days
same,survival time,"CT26/luc tumor [2]; group always, terminated on day 67",66.91 ± 0.1 days
same,survival time,CT26/luc tumor [2]; group concurrent,63.61 ± 1.5 days
same,IFN-γ in tumor,IFN-γ; group Always,85.35 ± 4.5 pg/mL
same,IFN-γ in tumor,IFN-γ; group Concurrent,39.42 ± 7.42 pg/mL
same,IFN-γ in tumor,IFN-γ; group after,19.60 ± 1.13 pg/mL
same,infiltrating CD4+ and CD8+ cells/0.1 mm^2 tumor tissues,CD4+ and CD8+ T cells,significantly increased numbers
same,TNF-α level in tumors relative to Never,TNF-α,40%
same,tumor inhibition effect in SCID mice,CT26/luc tumor [3],not found
same,body weight change (general toxicity),[4],no significant body weight change
